Source: paper PMC9095593, “On Methods for the Measurement of the Apelin Receptor Ligand Apelin” (Scientific Reports, 2022)
Like-named read-outs stand apart in the source and are kept apart here. Where no end group is shown, it is not given here.

Key:
[1] = Influence of cooling on ice and P100 protease inhibitor cocktail on peptide stability; conditions: HPLC-MS/MS, measured in triple; for Effect of cooling with ice on stability: spiked on K2EDTA and P100 plasma, measured immediately and after 30 and 60 min on ice or at room temperature; for Influence of the P100 tube (protease inhibitor cocktail) on stability: P100 vs K2EDTA, immediately, 30 and 60 min on ice or at room temperature
Description: The samples were measured immediately, and after 30 and 60 min on ice or at room temperature (Fig. 6). All samples were measured in triple.
The samples were measured immediately, or after 30 and 60 min on ice or at room temperature.

[2] = Stability of spiked synthetic peptides in plasma according to the preanalytical condition (immediately vs 60 min at room temperature); conditions: HPLC-MS/MS; for Degradation at the immediate measurement in non-acidified conditions: non-acidified plasma, measured immediately after spiking; for Degradation after one hour at room temperature: spiked synthetic peptide; for Appearance of apelin-pyr-13 after spiking synthetic apelin-13: after 60 min
Description: We aimed to minimalize degradation after sampling with a preanalytical protocol summarized in Fig. 3, including immediate cooling and rapid processing of samples. […] However, acidification can be applied only after separation by centrifugation of whole blood into a plasma and a cell compartment, because acidification of whole blood would lead to hemolysis and coagulation, rendering the blood samples unsuitable for further measurements. Therefore, we used protease inhibitor cocktail-containing K2EDTA-coated P100 blood tubes and a mechanical plasma separator (366422 BD Biosciences, San Jose, CA, USA)[19]. The aim of the protease inhibitor cocktail is to inactivate proteolytic degradation by enzymes present in whole blood; the mechanical separator prevent contact with cell-bound enzymes, both theoretically limiting enzymatic degradation of apelin during the several minutes between blood collection in the tube and completed plasma separation and acidification.
Figure 3 Overview of preanalytical conditions. Samples were immediately cooled on ice and processed within 1 h. Both standard K2EDTA tubes and P100 prechilled tubes containing a protease inhibitor cocktail and mechanical separator were used. The standard K2EDTA was centrifuged for 10 min 1300 × g at 4 °C, while the P100 tube was centrifuged for 20 min 2500 × g at 4 °C, according to the manufacturers’ instructions. After separation, plasma was untreated or acidified to either pH 2.5 or 4.5 by adding the plasma to low protein-binding tubes pre-filled with either phosphoric acid or formic acid. The plasma samples were stored directly at − 20 °C and transferred within 4 h at − 80 °C.
Spiking of individual peptides was performed on plasma collected in K2EDTA tubes, stored either non-acidified, or acidified to pH 4.5 or pH 2.5 and on plasma collected in P100 tubes, stored either non-acidified, or acidified to pH 4.5 and pH 2.5. The samples were measured both immediately and after 60 min at room temperature, each sample was measured 3 times.

[3] = cited from earlier work
Description: However, acidification can be appl ...

Kallikrein = conditions: cited from earlier work
Description: (§1) Table 1 Enzymatic processing of apelin. | column: Conversion

Prolyl carboxypeptidase = conditions: cited from earlier work
Description: as §1

Furin (PCSK3) = conditions: cited from earlier work
Description: as §1

[4] = system: G-protein-coupled apelin receptor (AR); parameters: method as in PMID 23872001, PMID 18272843, PMID 29357134; conditions: cited from earlier work
Description: Apelin is expressed as a 77–amino acid precursor, and the C-terminal 17 residues are completely conserved in mammalians. Enzymatic processing (overviewed in Table 1) results in several active C-terminal fragments named apelin-n, specifying that a given isoform has “n” amino acids, all sharing the same 12 C-terminal residues that contain the receptor-binding site (Fig. 1).

[5] = previously described plasma acidification step to pH 4.5
[6] = K2EDTA plasma acidified to pH 2.5, immediately and after 60 min at room temperature, measured 3 times
[7] = K2EDTA plasma acidified to pH 4.5, immediately and after 60 min at room temperature, measured 3 times
[8] = K2EDTA plasma, non-acidified, measured immediately and after 60 min at room temperature, each sample measured 3 times
[9] = P100 (protease inhibitor cocktail) plasma, non-acidified, immediately and after 60 min at room temperature, measured 3 times
[10] = P100 plasma acidified to pH 2.5, immediately and after 60 min at room temperature, measured 3 times
[11] = P100 plasma acidified to pH 4.5, immediately and after 60 min at room temperature, measured 3 times

Molecule	Effect of cooling with ice on stability [1]	Degradation at the immediate measurement in non-acidified conditions [2]	Influence of the P100 tube (protease inhibitor cocktail) on stability [1]	Stability in plasma acidified to pH 4.5 [3, 5]	Degradation after one hour at room temperature [2, 6]	Degradation after one hour at room temperature [2, 7]	Degradation after one hour at room temperature [2, 8]	Degradation after one hour at room temperature [2, 9]	Degradation after one hour at room temperature [2, 10]	Degradation after one hour at room temperature [2, 11]	further results
CSCC[C@H](NC(=O)[C@@H]1CCCN1C(=O)CNC(=O)[C@H](CCCCN)NC(=O)[C@H](Cc1c[nH]cn1)NC(=O)[C@H](CO)NC(=O)[C@H](CC(C)C)NC(=O)[C@H](CCCNC(=N)N)NC(=O)[C@@H]1CCCN1C(=O)[C@@H](N)CCCNC(=N)N)C(=O)N1CCC[C@H]1C(=O)N[C@@H](Cc1ccccc1)C(=O)O [Apelin-12]	cooling with ice increases stability	immediate degradation	–	–	–	–	–	–	–	–	Storage pH giving the best stability in plasma ([2]; plasma non-acidified, pH 4.5 or pH 2.5, 60 min at room temperature): most stable at pH 2.5
CSCC[C@H](NC(=O)[C@@H]1CCCN1C(=O)CNC(=O)[C@H](CCCCN)NC(=O)[C@H](Cc1cnc[nH]1)NC(=O)[C@H](CO)NC(=O)[C@H](CC(C)C)NC(=O)[C@H](CCCNC(=N)N)NC(=O)[C@@H]1CCCN1C(=O)[C@H](CCCNC(=N)N)NC(=O)[C@@H](N)CCC(N)=O)C(=O)N1CCC[C@H]1C(=O)N[C@@H](Cc1ccccc1)C(=O)O [Apelin-13]	cooling with ice increases stability	immediate degradation	small added value	provide stability	minor degradation	minor degradation	rapid degradation	rapid degradation	minor degradation	minor degradation	Appearance of apelin-pyr-13 after spiking synthetic apelin-13 ([2]; K2EDTA plasma non-acidified): minimal; Appearance of apelin-pyr-13 after spiking synthetic apelin-13 ([2]; K2EDTA plasma pH 2.5): ~25%; Appearance of apelin-pyr-13 after spiking synthetic apelin-13 ([2]; K2EDTA plasma pH 4.5): ~3 ×
CSCC[C@H](NC(=O)[C@@H]1CCCN1C(=O)CNC(=O)[C@H](CCCCN)NC(=O)[C@H](Cc1cnc[nH]1)NC(=O)[C@H](CO)NC(=O)[C@H](CC(C)C)NC(=O)[C@H](CCCNC(=N)N)NC(=O)[C@@H]1CCCN1C(=O)[C@H](CCCNC(=N)N)NC(=O)[C@H](CCC(N)=O)NC(=O)[C@H](CCCNC(=N)N)NC(=O)[C@H](CCCNC(=N)N)NC(=O)[C@H](Cc1ccccc1)NC(=O)[C@@H](N)CCCCN)C(=O)N1CCC[C@H]1C(=O)N[C@@H](Cc1ccccc1)C(=O)O [Apelin-17]	–	–	–	–	–	–	–	–	–	–	Degradation after one hour at room temperature (pH 2.5): minor degradation; Degradation after one hour at room temperature (pH 4.5): minor degradation; Stability in plasma acidified to pH 4.5 ([3]; pH 4.5): provide stability; Cleavage by kallikrein (Kallikrein): Cleaves the 3N-terminal amino acids of apelin-17; Cleavage by prolyl carboxypeptidase (Prolyl carboxypeptidase): Cleaves apelin 36, 17 and pyr-apelin 13
Apelin-36: synthetic apelin isoform of 36 amino acids, purchased from CPC Scientific / Phoenix Pharmaceuticals (LVQPRGSRNGPGPWQGGRRKFRRQRPRLSHKGPMPF; Apelin-36; UniProt Q9ULZ1 42-77, looked up)	cooling with ice increases stability	–	negative influence	provide stability	limited degradation	limited degradation	limited degradation	higher degradation	limited degradation	higher degradation	Conversion by furin (PCSK3) (Furin (PCSK3)): directly to apelin 13; Cleavage by prolyl carboxypeptidase (Prolyl carboxypeptidase; similar to ACE-2 effect): Cleaves apelin 36, 17 and pyr-apelin 13; Activation of the apelin receptor (AR) [4]: can activate the AR
NGPGPWQGGRRKFRRQRPRLSHKGPMPF [Apelin-28]	–	–	–	–	–	–	–	–	–	–	Influence of pH on stability in K2EDTA plasma ([2]; K2EDTA plasma non-acidified vs pH 4.5 vs pH 2.5, 60 min at room temperature): slightly better stability in K2EDTA plasma at pH 4.5 and pH 2.5 than in non-acidified plasma
